Measurements: patent US20240288345A1, “FLUORESCENT STAINING METHOD” (OSAKA UNIVERSITY, priority 2022, published 2024)
Entries after “also recorded” stand apart in the source; their conditions may differ. Read-outs that look alike come from different tables or passages of the source.

What was measured:
[1] = test system: human colonic mucosal tissue; experiment: Clearing and whole-mount 3D fluorescent staining of human colonic mucosal tissue (Test Example B); conditions: for 3D imaging signal of cleared tissue: CUBIC clearing, periodic acid, 50 μM, 2-3 days, excitation 488 nm; for Staining property for a sample having a thickness after clearing treatment: summary of Examples and Test Examples
Method: CUBIC-L and CUBIC-R+reagents (T3740 and T3741, Tokyo Chemical Industry Co., Ltd.) were used in tissue clearing. Atissue removal procedure is simply described below.
A formaldehyde-fixed tissue specimen was washed with PBS, and was subsequently immersed in a 50% (v/v) CUBIC-L reagent (mixture containing water and the CUBIC-L reagent at 1:1) overnight. Further, the specimen was immersed in the CUBIC-L reagent at 37° C. for 5 days or 6 days while being gently shaken. Next, each of those specimens was washed with PBS, was immersed in 30% (w/v) of sucrose in the PBS, and was frozen in O.C.T. COMPOUND at −80° C. overnight. […] After having been washed with PBS, the specimen was stained by being gently shaken at room temperature for 2 days or 3 days together with FAM hydrazide, 5-isomer (50 μM), Compound 1 (50 μM), Alexa Fluor 488 hydrazide (50 µM), BDP FL hydrazide ([…]), or fluorescein (50 µM) in PBS containing 0.5% (v/v) of Triton X-100 (12967, Nacalai Tesque, Inc.). When nuclear counterstaining was performed, propidium iodide (PI) (10 μg/mb, P21493, Life Technologies Corporation) or RedDot-2 (1:100, 40061-T, Biotium, Inc.) was also added to the staining solution. After the staining step, the specimen was washed with PBS, and was immersed in a 50% (v/v) CUBIC-R+reagent (mixture containing water and the CUBIC-R+reagent at 1:1) overnight. Further, the specimen was immersed in the CUBIC-R+reagent for 1 day or 2 days while being gently shaken. A cleared tissue specimen thus obtained was subjected to 3D imaging with a confocal fluorescence microscope or a light-sheet fluorescence microscope. A wavelength of 488 nm was applied as the excitation wavelength of each of FAM hydrazide, Compound 1, Alexa Fluor 488 hydrazide, BDP FL hydrazide, and fluorescein, and the fluorescence detection wavelength range of each of these materials was from 490 nm to 562 nm.
A 3D image was obtained by using a confocal microscope (Zeiss LSM880 Confocal/Multiphoton, Carl Zeiss AG) or a light-sheet fluorescence microscope (Zeiss Lightsheet 7, Carl Zeiss AG), All pieces of raw image data were reconstructed and analyzed with Imaris software (version 9.2.1, Bitplane Inc.).
A human colonic mucosal tissue after its formalin fixation, which had been excised into a square about 4 mm on a side, was subjected to clearing treatment and to whole-mount 3D tissue staining through use of FAM hydrazide, Alexa Fluor 488 hydrazide, BDP FL hydrazide, or fluorescein as a stain.

[2] = test system: goblet cell mucus of human colorectal mucosal tissue; experiment: Fluorescent staining of frozen sliced specimen of human colonic mucosa (Test Example A); conditions: for Fluorescent staining signal in goblet cell mucus, sliced section: 10 μm frozen section, 0.5% periodic acid pretreatment, 50 μM overnight
Method: A tissue to be stained was washed with phosphate buffered saline (PBS), was immersed in 30% (w/v) of sucrose in the PBS, and was frozen in O.C.T. COMPOUND (45833, Sakura Finetek) at −80° ° C. overnight. The frozen tissue was cut into a thickness of 10 μm with a cryostat (CM3050 S, Leica Biosystems). The resultant frozen section was washed with PBS three times, and was subjected to pretreatment with a 0.5% solution of periodic acid (HIOA) (86171, MUTO PURE CHEMICALS CO., LTD.) at room temperature for 30 minutes. The section was washed with PBS three times, and was incubated in FAM hydrazide, 5-isomer((50 µM, 24170, BroadPharm, in this description, sometimes referred to as “FAM hydrazide”), Alexa Fluor 488 hydrazide (50 μM, A10436, ThermoFisher Scientific, Inc.), BDP FL hydrazide (50 μM, 11470, Lumiprobe Corporation), or fluorescein (50 µM, FUJIFILM Wako Pure Chemical Corporation) diluted with PBS at room temperature overnight. After that, the section was washed with PBS and an image thereof was obtained with a confocal microscope.
A section of a human colorectal mucosal tissue sampled from the non-tumor region of a surgical specimen of colorectal cancer was subjected to fluorescent staining through use of FAM hydrazide, Alexa Fluor 488 hydrazide, BDP FL hydrazide, or fluorescein serving as a fluorescent skeleton as a stain.

[3] = test system: colonic mucosal epithelium; experiment: Staining combined with CUBIC tissue clearing, 3D imaging (Example 5); design: species or system human; conditions: CUBIC-L/CUBIC-R+ clearing, periodic acid pretreatment, 50 μM, room temperature 3 days
Method: Specifically, the human colonic mucosal tissue sample after the formalin fixation was sufficiently washed with PBS, and was then immersed in a solution, which had been obtained by diluting a CUBIC-L reagent with distilled water to 1/2, at 37° ° C. while being gently shaken. After that, the sample was immersed in the CUBIC-L reagent, and was treated at 37° C. while being gently shaken. During the treatment, the CUBIC-L reagent was replaced with a new one at an interval of once per 1 to 2 days. After that, the sample was sufficiently washed with PBS, and was then immersed in PBS containing 30% (w/v) of sucrose. After that, a frozen block of the Sample was produced by using TISSUE-TEK O.C.T. COMPOUND. The frozen block was thawed, and was then sufficiently washed with PBS and subjected to pretreatment with a […] aqueous solution of periodic acid, followed by staining with a solution, which had been obtained by diluting DAF-2 (50 μM) with PBS, at room temperature for 3 days. After that, the stained product was sufficiently washed with PBS, and was then immersed in a solution obtained by diluting a CUBIC-R+reagent with distilled water to 1/2, followed by gentle shaking at room temperature. After that, the resultant was immersed in the CUBIC-R+reagent at room temperature for 1 day while being gently shaken. An image of the resultant was taken with a confocal microscope. […]

[4] = test system: mucus of a goblet cell of colonic mucosa; experiment: Staining of frozen sliced section of human colonic mucosal tissue (Example 5); conditions: 8 μm frozen section, 50 μM in PBS, room temperature 1 day, confocal microscope
Text: A fluorescent probe containing a diaminobenzene structure, such as DAF-2 or Compound 2, was examined for its staining property in the mucus of a goblet cell by using a frozen sliced section of a human colonic mucosal tissue as a positive control analyte. Specifically, a sliced frozen section was cut out of the colonic mucosal tissue after its formalin fixation, and was stained with a group of candidate fluorescent probes and washed with phosphate buffered saline. After that, an image of the section was taken with a confocal fluorescence microscope.
(§1) Specifically, the human colonic mucosal tissue sample after the formalin fixation was sufficiently washed with PBS, and was then immersed in PBS containing 30% (w/v) of sucrose, followed by the production of a frozen block with TISSUE-TEK O. C. T. COMPOUND. The frozen block was sliced into a thickness of 8 μm to produce a frozen section. The frozen section was washed with PBS, and was then stained with a solution, which had been obtained by diluting DAF-2 ([…]) or Compound 2 (50 μM) with PBS, at room temperature for 1 day. After that, the stained product was sufficiently washed with PBS. Then, the washed product was mounted with a water-soluble mounting medium, and an image thereof was taken with a confocal microscope.

[5] = test system: basement membrane of a renal glomerulus; experiment: Staining of basement membrane of renal glomerulus (Example 5); conditions: staining as for colonic section
Method: as §1

[6] = Fluorescence spectra before and after addition of propionaldehyde; format: physicochemical; conditions: 0.02 mmol/L in 10 mmol/L sodium phosphate buffer pH 7.4; propionaldehyde 0.10 mmol/L; room temperature 4 days
Method: Propionaldehyde was added to a 10 mmol/L sodium phosphate buffer (pH: 7.4) containing 0. 02 mmol/L of each of DAF-2 and Compound 2 so that its final concentration became 0.10 mmol/L, followed by stirring at room temperature for 4 days. The absorption and fluorescence spectra of each of the solutions before the addition of the aldehyde and after the addition were measured.

[7] = Light characteristics: molar extinction coefficient and quantum yield (Table 1); format: physicochemical; conditions: 10 mM sodium phosphate buffer, pH 7.4
Text: When propionaldehyde was caused to act on DAF-2 (product model number: SK1001-01, Goryo Chemical, Inc.), Compound 16 below was obtained. It was recognized that Compound 16 was fluorescent and its fluorescence intensity increased along with the formation of a benzimidazole ring. […] The formation of a covalent bond with the aldehyde enables detection by fluorescence emission.

[8] = 100 mM sodium phosphate buffer, pH 7.4, cited from earlier work

| Fluorescence intensity after addition of the aldehyde compared to before [6] | Compound | 3D imaging signal of cleared tissue [1] | Staining property for a sample having a thickness after clearing treatment [1] | Fluorescent staining signal in goblet cell mucus, sliced section [2] | 3D imaging of colonic mucosal epithelium [3] | Staining of mucus of goblet cell of colonic mucosa [4] | Visualization of basement membrane of renal glomerulus [5] | also measured |
| --- | --- | --- | --- | --- | --- | --- | --- | --- |
| – | Cc1cc(C)n2c1C=C1C=CC(CCC(=O)NN)=[N+]1[B-]2(F)F.Cl [BDP FL hydrazide] | weak | insufficient | weak | – | – | – | – |
| increase | Cc1cc(N)c(N)cc1-c1c2ccc(=O)cc-2oc2cc(O)ccc12 [Compound 2] | – | significantly excellent | – | enabled the 3D imaging | clearly stained | clearly visualized | – |
| – | CCc1nc2cc(C(=O)O)c(-c3c4ccc(=O)cc-4oc4cc(O)ccc34)cc2[nH]1 [Compound 16] | – | – | – | – | – | – | Quantum yield [7]: 0.85; λabs [7]: 489 nm; Molar extinction coefficient ([7]; in M-1 cm-1 (unit assumed)): 63,000 |
| increase | Nc1cc(C(=O)O)c(-c2c3ccc(=O)cc-3oc3cc(O)ccc23)cc1N [DAF-2] | – | significantly excellent | – | enabled the 3D imaging | clearly stained | clearly visualized | Quantum yield [8]: 0.005; λabs [8]: 486 nm; Molar extinction coefficient ([8]; in M-1 cm-1 (unit assumed)): 79,000 |
| – | Alexa Fluor 488 hydrazide | weak | insufficient | clear positive image; also recorded: clear staining | – | – | – | Fluorescent staining signal without oxidation treatment with HIO4, sliced section ([2]; no HIO4 oxidation): not obtained |
